Patent publication US5618815A, “1,9-bridged thiazolo[3,2-a]quinoline derivatives” (Bayer Aktiengesellschaft, priority 1994, dated 1997)
In brackets after ≈: the same amount, converted by molar mass.

Columns and labels:
Format in all cases: cell-based
Enterococcus faecalis = test: MIC by serial dilution (agar), Enterococcus faecalis; conditions: 20 h, 37° C., about 20 hours
Experimental: (§1) The minimum inhibitory concentrations (MICs) of the compounds according to the invention were determined by serial dilution methods on Iso-Sensitest agar (Oxoid). For each test substance a series of agar plates was, prepared, which plates contained decreasing concentrations of the active compound, with twofold dilution in each case. The agar plates were inoculated with a Multipoint inoculator (Denley). Inoculation was carried out using overnight cultures of the pathogens, which had been diluted beforehand so that each inoculation point contained about 10^4 colony-forming particles. The inoculated agar plates were incubated at 37° C., and the growth of the microorganisms was read off after about 20 hours. The MIC (μg/ml) indicates the lowest concentration of active compound at which no growth-could be perceived with the naked eye. In the table below, the MICs of some of the compounds according to the invention are listed.

Staphylococcus aureus = test: MIC by serial dilution (agar), Staphylococcus aureus; conditions: 37° C., about 20 hours
Experimental: as §1

Micrococcus luteus = test: MIC by serial dilution (agar), Micrococcus luteus; conditions: strain 9341, Iso-Sensitest agar, 37° C., about 20 hours
Experimental: as §1

[1] = strain 27 101, Iso-Sensitest agar
[2] = strain 9790, Iso-Sensitest agar
[3] = 20 h, strain 133, Iso-Sensitest agar
[4] = 20 h, strain ICB 25701, Iso-Sensitest agar
[5] = 20 h, strain ICB 25768, Iso-Sensitest agar
[6] = ATCC29123, 20 h, strain ATCC 29123, Iso-Sensitest agar

SMILES	MIC (Enterococcus faecalis; [1]) [µg/mL]	MIC (Enterococcus faecalis; [2]) [µg/mL]	MIC (Staphylococcus aureus; [3]) [µg/mL]	MIC (Staphylococcus aureus; [4]) [µg/mL]	MIC (Staphylococcus aureus; [5]) [µg/mL]	MIC (Staphylococcus aureus; [6]) [µg/mL]	MIC (Micrococcus luteus) [µg/mL]
CC1C=CC(N)C2CN(c3c(F)cc4c(=O)c(C(=O)O)c5scc6n5c4c3N(C)C6)CC12 (stereo not drawn) [Example 5, 8-(2-Amino-5-methyl-8-azabicyclo[4.3.0]non-3-en-8-yl)-7-fluoro-5-oxo-9,1-[(N-methylimino)methano]-5H-thiazolo-[3,2-a]quinoline-4-carboxylic acid]	0.062 (≈ 0.136 µM)	0.062 (≈ 0.136 µM)	≤ 0.015	0.125 (≈ 0.275 µM)	0.5 (≈ 1.1 µM)	≤ 0.015	0.062 (≈ 0.136 µM)
CNC1C=CCC2CN(c3c(F)cc4c(=O)c(C(=O)O)c5scc6n5c4c3N(C)C6)CC21 (stereo not drawn) [Example 3, 7-Fluoro-8-(2-methylamino-8-azabicyclo[4.3.0]non-3-en-8-yl)-5-oxo-9,1-[(N-methylimino)-methano]-5H-thiazolo-[3,2-a]quinoline-4-carboxylic acid]	0.125 (≈ 0.275 µM)	0.125 (≈ 0.275 µM)	≤ 0.015	0.125 (≈ 0.275 µM)	0.25 (≈ 0.55 µM)	≤ 0.015	0.125 (≈ 0.275 µM)
CNCC1C=CCC2CN(c3c(F)cc4c(=O)c(C(=O)O)c5scc6n5c4c3N(C)C6)CC12 (stereo not drawn) [Example 7, 7-Fluoro-8-(2-methylamonomethyl-8-azabicyclo[4.3.0]non-3-en-8-yl)-5-oxo-9,1-[(N-methylimino)-methano]-5H-thiazolo-[3,2-a]quinoline-4-carboxylic acid]	0.126 (≈ 0.269 µM)	0.125 (≈ 0.267 µM)	≤ 0.015	0.25 (≈ 0.534 µM)	1 (≈ 2.13 µM)	≤ 0.015	0.25 (≈ 0.534 µM)
